Reference: patent US8158670B2 (priority 1996, dated 2012)

Columns and labels:
Format in all cases: cell-based, baboon
[1] = tested on: Vascular smooth muscle cells (BO54); assay: Scratch-migration assay; set-up: key: −=no toxicity; +1=minimal; +2=mild; +3=moderate; +4=marked toxicity; settings: Continuous Exposure, 1.0 μg/mL
Procedure: (§1) Vascular smooth muscle cells (BO54) were derived from explants of baboon aortic smooth muscle, as described in Example 10. The cells were grown in flat bottom, six well tissue culture plates, which hold about 5 ml of medium. The vascular smooth muscle cells were plated at 200,000 cells/well and placed at 37° C. in a humidified 5% CO2 incubator for 18 hours. The wells were then scratched with a sterile portion of a single edge razor blade that was held by clamp or pliers and was brought aseptically into contact with the bottom of the well at a 90° angle. The cells from a small area along the scratch were removed by a sterile cotton tipped applicator while the blade was in contact with the bottom of the well. After incubation, the presence of cells in the “scratched” area is indicative of cell migration across the scratch line.
Briefly, a stock solution of cytochalasin B (Sigma Chemical Co.) in dimethyl sulfoxide (DMSO) at 1 mg/ml was prepared. […]
In this Table, “M” indicates Migration Grade. wherein −=no migration; +1=minimal; +2=mild; +3=moderate; and +4=marked (maximum density; limit of cell contact inhibition) migration of vascular smooth muscle cells into the cleared area adjacent to the scratch. […] The migration results are expressed as “Grade in the Cleared Area of the Well/Grade in an Undisturbed Region of the Well.” The toxicity values represent a grade for all cells in each well.

[2] = tested on: Vascular smooth muscle cells (BO54); assay: Scratch-migration assay; set-up: key: −=no migration; +1=minimal; +2=mild; +3=moderate; +4=marked (maximum density; limit of cell contact inhibition) migration
Procedure: as §1
(§2) Briefly, a stock solution of cytochalasin B (Sigma Chemical Co.) in dimethyl sulfoxide (DMSO) at 1 mg/ml was prepared. Test dilutions of cytochalasin B or control medium were added. Each experiment included two sets of plates:
(§3) A set: Test agent exposure for 1, 3, 6, 8 and 10 days only; and
(§4) B set: Test agent exposure for 1, 3, 6, 8 and 10 days, followed by a seven day recovery time with control medium.
(§5) Both sets of plates were fixed (10% formalin in PBS) and stained (0.02% crystal violet) at the end of the timed exposures. Test concentrations for cytochalasin B were 1, 0.1 and 0.01 μg/ml, and a negative medium control was included. Fresh medium and drug were supplied 3 times per week.
(§6) In this Table, “M” indicates Migration Grade. wherein −=no migration; +1=minimal; +2=mild; +3=moderate; and +4=marked (maximum density; limit of cell contact inhibition) migration of vascular smooth muscle cells into the cleared area adjacent to the scratch. In this Table, “T” denotes a morphological Toxicity Grade, wherein −=no toxicity; +1=minimal; +2=mild; +3=moderate; and +4=marked toxicity. The migration results are expressed as “Grade in the Cleared Area of the Well/Grade in an Undisturbed Region of the Well.” The toxicity values represent a grade for all cells in each well.

[3] = tested on: Vascular smooth muscle cells (BO54); assay: Scratch-migration assay; set-up: key to Migration Grade in the Cleared Area of the Well / Migration Grade in an Undisturbed Region of the Well: −=no migration; +1=minimal; +2=mild; +3=moderate; +4=marked (maximum density; limit of cell contact inhibition) migration
Procedure: as §1, §2, §3, §4, §5, §6

[4] = tested on: Vascular smooth muscle (BO54) cells; settings: 5 minute exposure
[5] = Day 3, Continuous Exposure, 1.0 μg/mL
[6] = Day 3 exposure, 7-day Recovery Post Exposure, 1.0 μg/mL
[7] = Day 6, Continuous Exposure, 0.1 μg/mL
[8] = Day 6 exposure, 7-day Recovery Post Exposure, 1.0 μg/mL
[9] = Day 8, Continuous Exposure, 0.1 μg/mL
[10] = Day 8 exposure, 7-day Recovery Post Exposure, 1.0 μg/mL
[11] = Day 10, Continuous Exposure, 0.1 μg/mL
[12] = Day 10 exposure, 7-day Recovery Post Exposure, 1.0 μg/mL
[13] = Day 1, Continuous Exposure, 0.01 μg/mL
[14] = Day 1, Continuous Exposure, 0.1 μg/mL
[15] = Day 1, Continuous Exposure, 1.0 μg/mL
[16] = Day 1 exposure, 7-day Recovery Post Exposure, 0.01 μg/mL
[17] = Day 1 exposure, 7-day Recovery Post Exposure, 0.1 μg/mL
[18] = Day 1 exposure, 7-day Recovery Post Exposure, 1.0 μg/mL
[19] = Day 3, Continuous Exposure, 0.01 μg/mL
[20] = Day 3, Continuous Exposure, 0.1 μg/mL
[21] = Day 3 exposure, 7-day Recovery Post Exposure, 0.01 μg/mL
[22] = Day 3 exposure, 7-day Recovery Post Exposure, 0.1 μg/mL
[23] = Day 6, Continuous Exposure, 0.01 μg/mL
[24] = Day 6, Continuous Exposure, 1.0 μg/mL
[25] = Day 6 exposure, 7-day Recovery Post Exposure, 0.01 μg/mL
[26] = Day 6 exposure, 7-day Recovery Post Exposure, 0.1 μg/mL
[27] = Day 8, Continuous Exposure, 0.01 μg/mL
[28] = Day 8, Continuous Exposure, 1.0 μg/mL
[29] = Day 8 exposure, 7-day Recovery Post Exposure, 0.01 μg/mL
[30] = Day 8 exposure, 7-day Recovery Post Exposure, 0.1 μg/mL
[31] = Day 10, Continuous Exposure, 0.01 μg/mL
[32] = Day 10, Continuous Exposure, 1.0 μg/mL
[33] = Day 10 exposure, 7-day Recovery Post Exposure, 0.01 μg/mL
[34] = Day 10 exposure, 7-day Recovery Post Exposure, 0.1 μg/mL

Q: Which results are given for `C=C1[C@@H](C)[C@H]2[C@H](Cc3ccccc3)NC(=O)[C@]23OC(=O)/C=C/[C@H](O)CCC[C@@H](C)C/C=C/[C@H]3[C@@H]1O` [cytochalasin B]?
A: morphological Toxicity Grade ([1]; Day 8): +4; morphological Toxicity Grade ([1]; Day 10): +4; morphological Toxicity Grade [2, 5]: +3; morphological Toxicity Grade [2, 6]: +1; morphological Toxicity Grade [2, 7]: +1; morphological Toxicity Grade [2, 8]: +3; morphological Toxicity Grade [2, 9]: +1; morphological Toxicity Grade [2, 10]: +3; morphological Toxicity Grade [2, 11]: +1; morphological Toxicity Grade [2, 12]: +3; ability to migrate following removal of the therapeutic agent ([3]; 0.1 μg/ml, even after 10 days of continuous exposure): +3 to +4; Migration Grade in an Undisturbed Region of the Well [3, 13]: +3; Migration Grade in the Cleared Area of the Well [3, 13]: +1; Migration Grade in an Undisturbed Region of the Well [3, 14]: +3; Migration Grade in the Cleared Area of the Well [3, 14]: +1; Migration Grade in an Undisturbed Region of the Well [3, 15]: +2; Migration Grade in the Cleared Area of the Well [3, 15]: −; Migration Grade in an Undisturbed Region of the Well [3, 16]: −4; Migration Grade in the Cleared Area of the Well [3, 16]: +3; Migration Grade in an Undisturbed Region of the Well [3, 17]: +4; Migration Grade in the Cleared Area of the Well [3, 17]: +3; Migration Grade in an Undisturbed Region of the Well [3, 18]: +3; Migration Grade in the Cleared Area of the Well [3, 18]: +2; Migration Grade in an Undisturbed Region of the Well [3, 19]: +4; Migration Grade in the Cleared Area of the Well [3, 19]: +3; Migration Grade in an Undisturbed Region of the Well [3, 20]: +4; Migration Grade in the Cleared Area of the Well [3, 20]: +1; Migration Grade in an Undisturbed Region of the Well [3, 5]: +2; Migration Grade in the Cleared Area of the Well [3, 5]: −; Migration Grade in an Undisturbed Region of the Well [3, 21]: −4; Migration Grade in the Cleared Area of the Well [3, 21]: +3; Migration Grade in an Undisturbed Region of the Well [3, 22]: +4; Migration Grade in the Cleared Area of the Well [3, 22]: +3; Migration Grade in an Undisturbed Region of the Well [3, 6]: +3; Migration Grade in the Cleared Area of the Well [3, 6]: +2; Migration Grade in an Undisturbed Region of the Well [3, 23]: +4; Migration Grade in the Cleared Area of the Well [3, 23]: +3; Migration Grade in an Undisturbed Region of the Well [3, 7]: +4; Migration Grade in the Cleared Area of the Well [3, 7]: +2; Migration Grade in an Undisturbed Region of the Well [3, 24]: +2; Migration Grade in the Cleared Area of the Well [3, 24]: −; Migration Grade in an Undisturbed Region of the Well [3, 25]: +4/+4; Migration Grade in the Cleared Area of the Well [3, 25]: +4/+4; Migration Grade in an Undisturbed Region of the Well [3, 26]: +4; Migration Grade in the Cleared Area of the Well [3, 26]: +3; Migration Grade in an Undisturbed Region of the Well [3, 8]: +3; Migration Grade in the Cleared Area of the Well [3, 8]: +2; Migration Grade in an Undisturbed Region of the Well [3, 27]: +4; Migration Grade in the Cleared Area of the Well [3, 27]: +3; Migration Grade in an Undisturbed Region of the Well [3, 9]: +4; Migration Grade in the Cleared Area of the Well [3, 9]: +2; Migration Grade in an Undisturbed Region of the Well [3, 28]: +2; Migration Grade in the Cleared Area of the Well [3, 28]: −; Migration Grade in an Undisturbed Region of the Well [3, 29]: +4/+4; Migration Grade in the Cleared Area of the Well [3, 29]: +4/+4; Migration Grade in an Undisturbed Region of the Well [3, 30]: +4; Migration Grade in the Cleared Area of the Well [3, 30]: +3; Migration Grade in an Undisturbed Region of the Well [3, 10]: +3; Migration Grade in the Cleared Area of the Well [3, 10]: +2; Migration Grade in an Undisturbed Region of the Well [3, 31]: +4; Migration Grade in the Cleared Area of the Well [3, 31]: +3; Migration Grade in an Undisturbed Region of the Well [3, 11]: +4; Migration Grade in the Cleared Area of the Well [3, 11]: +2; Migration Grade in an Undisturbed Region of the Well [3, 32]: +2; Migration Grade in the Cleared Area of the Well [3, 32]: −; Migration Grade in an Undisturbed Region of the Well [3, 33]: +4/+4; Migration Grade in the Cleared Area of the Well [3, 33]: +4/+4; Migration Grade in an Undisturbed Region of the Well [3, 34]: +4/+4; Migration Grade in the Cleared Area of the Well [3, 34]: +4/+4; Migration Grade in an Undisturbed Region of the Well [3, 12]: +3; Migration Grade in the Cleared Area of the Well [3, 12]: +2; migration into the cleared area adjacent to the scratch ([3]; dose of 0.1 μg/ml): +1 to +2; time to resume migration after cells clear the agent ([3]; in vitro data): ≤ 24 h; minimum effective dose (MED) [4]: 10 µg/mL
